# Data as given in patent US20260159536A1, “AKR1C3-ACTIVATED DNA ALKYLATING AGENT, AND MEDICAL APPLICATION THEREOF” (ASCENTAWITS PHARMACEUTICALS, LTD., priority 2021, published 2026).
# What was measured:
# [1] = test system: HuPrime model LI6280 human liver cancer; test: In vivo pharmacodynamics, liver cancer LI6280 PDX model; set-up: species or system BALB/c nude mice; details: for Tumor volume: 4.5 mg/kg i.v.
# Method: Experiment Instruction: BALB/c nude mice were subcutaneously inoculated with HuPrime® model LI6280 tumour blocks to establish a subcutaneous transplantation tumour model of human liver cancer. […] The efficacy was evaluated according to the relative tumor inhibition rate TGI (%), and the safety was evaluated according to the change in body weight and the death of the animals.
# [2] = test system: human liver cancer HepG2 cells; test: In vivo pharmacodynamics, liver cancer HepG2 CDX model; set-up: species or system BALB/c nude mice; details: for Relative tumor volume (x ± S) / T/C (%) / TGI (%) / Tumor volume (x ± S): QDx5, QDx5, i.p.; for Tumor volume (x ± S): in mm³ (unit assumed)
# Method: Experiment Instruction: BALB/c nude mice were subcutaneously inoculated with human liver cancer HepG2 cells to establish a subcutaneous transplantation tumor model of human liver cancer. […] The efficacy was evaluated according to the relative tumor inhibition rate TGI (%), and the safety was evaluated according to the change in body weight and the death of the animals.
# [3] = 1.25 mg/kg, 2 days off, 2 weeks off, Day 53
# [4] = 2.5 mg/kg, 2 days off, 2 weeks off, Day 53
structure (smiles),measurement,setting,value
O=[N+]([O-])c1ccc(C(OP(=O)(N2CC2)N2CC2)C(F)(F)F)cc1Oc1ccc(-c2ccc(F)cc2)c(F)c1 (racemic) [Compound A],Relative tumor volume (x ± S),"[1]; 4.5 mg/kg i.v. QWx3, Day 17",20.79 ± 1.15
same,T/C (%),"[1]; 4.5 mg/kg i.v. QWx3, Day 17",101.41%
same,TGI (%),"[1]; 4.5 mg/kg i.v. QWx3, Day 17",−1.41%
same,Tumor volume (x ± S),"[1]; 4.5 mg/kg i.v. QWx3, Day 17, in mm³ (unit assumed)",2201.20 ± 287.44
same,Tumor volume,[1]; Day 0,103.98 mm^3
same,Tumor volume,[1]; Day 3,150.33 mm^3
same,Tumor volume,[1]; Day 7,318.74 mm^3
same,Tumor volume,[1]; Day 10,683.99 mm^3
same,Tumor volume,[1]; Day 14,1404.42 mm^3
same,Tumor volume,[1]; Day 17,2201.20 mm^3
same,Tumor volume,[1]; Day 21,2739.12 mm^3
same,Tumor volume,[1]; Day 24,3311.77 mm^3
same,Tumor volume,[1]; Day 28,3362.07 mm^3
same,Tumor volume,"[2]; 1.25 mg/kg i.p., Day 19",189.54 mm^3
same,Tumor volume,"[2]; 1.25 mg/kg i.p., Day 22",315.41 mm^3
same,Tumor volume,"[2]; 1.25 mg/kg i.p., Day 24",351.74 mm^3
same,Tumor volume,"[2]; 1.25 mg/kg i.p., Day 27",383.10 mm^3
same,Tumor volume,"[2]; 1.25 mg/kg i.p., Day 31",366.64 mm^3
same,Tumor volume,"[2]; 1.25 mg/kg i.p., Day 36",416.27 mm^3
same,Tumor volume,"[2]; 1.25 mg/kg i.p., Day 39",586.80 mm^3
same,Tumor volume,"[2]; 1.25 mg/kg i.p., Day 42",782.39 mm^3
same,Tumor volume,"[2]; 1.25 mg/kg i.p., Day 46",886.97 mm^3
same,Tumor volume,"[2]; 1.25 mg/kg i.p., Day 49",975.41 mm^3
same,Tumor volume,"[2]; 1.25 mg/kg i.p., Day 53",1066.23 mm^3
same,Relative tumor volume (x ± S),[2]; [3],5.57 ± 1.26
same,T/C (%),[2]; [3],47.03%
same,TGI (%),[2]; [3],52.97%
same,Tumor volume (x ± S),[2]; [3],1066.23 ± 252.18
same,Tumor volume,"[2]; 2.5 mg/kg i.p., Day 19",189.31 mm^3
same,Tumor volume,"[2]; 2.5 mg/kg i.p., Day 22",292.03 mm^3
same,Tumor volume,"[2]; 2.5 mg/kg i.p., Day 24",360.14 mm^3
same,Tumor volume,"[2]; 2.5 mg/kg i.p., Day 27",373.23 mm^3
same,Tumor volume,"[2]; 2.5 mg/kg i.p., Day 31",405.67 mm^3
same,Tumor volume,"[2]; 2.5 mg/kg i.p., Day 36",392.90 mm^3
same,Tumor volume,"[2]; 2.5 mg/kg i.p., Day 39",342.04 mm^3
same,Tumor volume,"[2]; 2.5 mg/kg i.p., Day 42",399.84 mm^3
same,Tumor volume,"[2]; 2.5 mg/kg i.p., Day 46",417.54 mm^3
same,Tumor volume,"[2]; 2.5 mg/kg i.p., Day 49",456.60 mm^3
same,Tumor volume,"[2]; 2.5 mg/kg i.p., Day 53",417.76 mm^3
same,Relative tumor volume (x ± S),[2]; [4],2.19 ± 0.52
same,T/C (%),[2]; [4],18.46%
same,TGI (%),[2]; [4],81.54%
same,Tumor volume (x ± S),[2]; [4],417.76 ± 105.16
same,euthanasia owing to BWL>20%,"[2]; 5 mg/kg QDx5, 2 days off, 2 weeks off, QDx5, i.p. (Group 7)",one mouse was euthanized
same,death,"[2]; 5 mg/kg QWx2, 1 week off, QWx2, i.v. (Group 3)",one mouse in this group suffered death
same,Tumor volume,"[2]; 5 mg/kg i.p., Day 19",189.64 mm^3
same,Tumor volume,"[2]; 5 mg/kg i.p., Day 22",259.29 mm^3
same,Tumor volume,"[2]; 5 mg/kg i.p., Day 24",280.24 mm^3
same,Tumor volume,"[2]; 5 mg/kg i.p., Day 27",286.22 mm^3
same,Tumor volume,"[2]; 5 mg/kg i.p., Day 31",290.75 mm^3
same,Tumor volume,"[2]; 5 mg/kg i.p., Day 36",293.88 mm^3
same,Tumor volume,"[2]; 5 mg/kg i.p., Day 39",247.49 mm^3
same,Tumor volume,"[2]; 5 mg/kg i.p., Day 42",224.58 mm^3
same,Tumor volume,"[2]; 5 mg/kg i.p., Day 46",215.32 mm^3
same,Tumor volume,"[2]; 5 mg/kg i.p., Day 49",234.89 mm^3
same,Tumor volume,"[2]; 5 mg/kg i.p., Day 53",189.84 mm^3
same,Tumor volume,"[2]; 5 mg/kg i.v., Day 19",191.48 mm^3
same,Tumor volume,"[2]; 5 mg/kg i.v., Day 22",315.19 mm^3
same,Tumor volume,"[2]; 5 mg/kg i.v., Day 24",360.12 mm^3
same,Tumor volume,"[2]; 5 mg/kg i.v., Day 27",390.21 mm^3
same,Tumor volume,"[2]; 5 mg/kg i.v., Day 31",373.82 mm^3
same,Tumor volume,"[2]; 5 mg/kg i.v., Day 36",314.44 mm^3
same,Tumor volume,"[2]; 5 mg/kg i.v., Day 39",283.08 mm^3
same,Tumor volume,"[2]; 5 mg/kg i.v., Day 42",276.88 mm^3
same,Tumor volume,"[2]; 5 mg/kg i.v., Day 46",233.11 mm^3
same,Tumor volume,"[2]; 5 mg/kg i.v., Day 49",145.58 mm^3
same,Tumor volume,"[2]; 5 mg/kg i.v., Day 53",136.44 mm^3
